The values below are quoted from earlier work in US11964986B1, “9-oxo-9,10-dihydro-6H-pyrano[3,2-b:4,5-b′]dipyridine-8-carboxylic acid derivatives” (REJUVERON TELOMERE THERAPEUTICS AG, priority 2023, dated 2024).

The data set has as its system HBsAg. The settings on record: Table 4; effective concentration that achieved 50% inhibitory effect; from WO2019177937; cited from earlier work.

For the substance “(RS)-6-Isopropyl-2-methoxy-3-(3-methoxypropoxy)-9-oxo-9,10-dihydro-6H-pyrano[3,2-b:4,5-b′]dipyridine-8-carboxylic acid [Example 501]”, the EC50 is 94 nM.
